Experimental data: PubChem BioAssay (NCI)
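Tested at 5 concentrations; 48 h exposure; 96-well plates; endpoints linearly interpolated, else capped at highest concentration. GI50 is the concentration that inhibits growth by half. The concentration for full growth arrest is given as TGI.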

What was measured:
Assay in all cases: growth of human tumour cells (NCI), 48 h
[1] = tested on: NCI-H522 lung
[2] = tested on: EKVX NSCLC
[3] = tested on: HL-60(TB) leukemia
[4] = tested on: CCRF-CEM leukemia
[5] = tested on: UACC-257 melanoma
[6] = tested on: CAKI-1 renal
[7] = tested on: UO-31 renal
[8] = tested on: HOP-92 NSCLC
[9] = tested on: DU-145 prostate
[10] = tested on: MCF7 breast

| Compound | TGI [1] | TGI [2] | TGI [3] | TGI [4] | TGI [5] [µM] | TGI [6] [µM] | TGI [7] | TGI [8] | GI50 [1] | GI50 [9] [µM] | TGI [9] [µM] | GI50 [3] | GI50 [4] | GI50 [5] [µM] | GI50 [6] [µM] | GI50 [7] | GI50 [8] | GI50 [2] | GI50 [10] [µM] | TGI [10] [µM] |
| --- | --- | --- | --- | --- | --- | --- | --- | --- | --- | --- | --- | --- | --- | --- | --- | --- | --- | --- | --- | --- |
| CCCS(=O)(=O)/C(=C(\c1ccc(Br)cc1)S(=O)(=O)CCC)c1ccc(Br)cc1 | > 10 µM | > 10 µM | > 10 µM | > 10 µM | > 10 | > 10 | > 10 µM | > 10 µM |  |  |  |  |  |  |  |  |  |  |  |  |
| COc1ccc2nc3cc(Cl)ccc3c(NCCN)c2c1 | 3.56 µM |  | 4.67 µM | 5.39 µM | 33.3 | 3.06 | 2.95 µM | 2.95 µM | 1.73 µM | 1.53 | 2.92 | 2.16 µM | 1.42 µM | 18.6 | 1.65 | 1.5 µM | 1.47 µM |  |  |  |
| CC(=O)O.[Au].c1ccc([PH+](c2ccccc2)c2ccccc2)cc1 | 1.96 µM | 8.56 µM | 0.266 µM | 2.34 µM | 5.68 | 5.35 | 24.4 µM | 5.1 µM | 0.526 µM |  |  | 0.0578 µM | 0.404 µM | 1.82 | 2.27 | 11.1 µM | 3.02 µM | 3.61 µM |  |  |
| C/C=C1/C(=C/c2[nH]c(/C=c3\[nH]/c(=C/C4=NC(=O)C(CC)=C4C)c(C)c3CCC(=O)O)c(CCC(=O)O)c2C)NC(=O)C1C (stereo not given) | > 150 µg/mL | > 150 µg/mL | > 150 µg/mL | > 150 µg/mL |  |  | > 150 µg/mL | > 150 µg/mL | > 150 µg/mL |  |  | > 150 µg/mL | > 150 µg/mL |  |  | > 150 µg/mL | 103 µg/mL | > 150 µg/mL |  |  |
| COC(=O)C(=O)C(C(=O)C=C(C)C)C(=O)C(=O)Nc1ccc(C)cc1C (stereo not given) | > 100 µM | > 100 µM | > 100 µM | > 100 µM | > 100 | > 100 | > 100 µM |  |  |  |  |  |  |  |  |  |  |  |  |  |
| c1cc[c]([Pb]([c]2ccccc2)[c]2ccccc2)cc1 | 15.1 µM | 76.8 µM | > 100 µM | > 100 µM | 59.1 | > 100 | 88.6 µM | 47.8 µM | 2.53 µM |  |  | 41.9 µM | 10.1 µM | 19 | 30 | 26.8 µM | 10.7 µM | 25.2 µM |  |  |
| CN(C)C(c1ccccc1)C(O)c1ccccc1 (stereo not given) | > 100 µM | > 100 µM | > 100 µM | > 100 µM | > 100 | > 100 | > 100 µM |  |  |  |  |  |  |  |  |  |  |  |  |  |
| N#CCC(=O)NC1C2CC3CC(C2)CC1C3 (stereo not given) | 31 µM | 33.9 µM | 61.6 µM | > 100 µM | 47.2 | 34.1 | > 100 µM | 36.1 µM |  |  |  |  |  |  |  |  |  |  |  |  |
| CC[C@H](C)[C@H]1O[C@]2(C=C[C@@H]1C)C[C@@H]1C[C@@H](C/C=C(\C)[C@@H](O[C@H]3C[C@H](OC)[C@@H](O[C@H]4C[C@H](OC)[C@@H](NC)[C@H](C)O4)[C@H](C)O3)[C@@H](C)/C=C/C=C3\CO[C@@H]4[C@H](O)C(C)=C[C@@H](C(=O)O1)[C@]34O)O2 | 3.73 µM | 6.51 µM | 3.81 µM | 4.02 µM | 4.21 | 5.02 | 4.13 µM | 9.67 µM | 1.75 µM |  |  | 1.88 µM | 1.87 µM | 2.03 | 1.89 | 1.69 µM | 2.12 µM | 2.13 µM | 1.85 | 4.34 |
| OC/C=C(\I)CCCOCOCc1ccccc1 | 80.2 µM | > 100 µM | 35.8 µM | 46.1 µM |  |  | > 100 µM | 53.4 µM |  |  |  |  |  |  |  |  |  |  |  |  |
| Cc1[nH]c2ccccc2c1C1Cc2ccccc2N1C(=O)/C(Cl)=C/c1ccccc1 (stereo not given) | > 100 µM | > 100 µM | > 100 µM | > 100 µM | > 100 | > 100 | > 100 µM | > 100 µM |  |  |  |  |  |  |  |  |  |  |  |  |
| CCCCCCC(=O)C/C(=N/NC(N)=S)C(=O)NC1C2CC3CC(C2)CC1C3 (stereo not given) |  | > 100 µM | > 100 µM | > 100 µM | > 100 |  | > 100 µM | > 100 µM |  |  |  |  |  |  |  |  |  |  |  |  |
| CC(=O)N1C/C(=C\c2ccc(N(C)C)cc2)C(=O)/C(=C/c2ccc(N(C)C)cc2)C1 |  |  | > 100 µM | > 100 µM | > 100 | > 100 | > 100 µM | > 100 µM |  |  |  |  |  |  |  |  |  |  |  |  |
| Cc1nc2ccccc2c(=O)n1-c1ccccc1F | > 100 µM | > 100 µM | > 100 µM | > 100 µM | > 100 | > 100 | > 100 µM | > 100 µM |  |  |  |  |  |  |  |  |  |  |  |  |
| CC(C)c1cc2c(O)c(c1)Cc1cc(C(C)C)cc(c1O)Cc1cc(C(C)C)cc(c1O)Cc1cc(C(C)C)cc(c1O)C2 | > 100 µM | > 100 µM | > 100 µM | > 100 µM | > 100 | > 100 | > 100 µM | > 100 µM |  |  |  |  |  |  |  |  |  |  |  |  |
| CNc1nc(N)c(N=O)c(Nc2ccc(Br)cc2)n1 | > 100 µM | > 100 µM | > 100 µM | > 100 µM | > 100 |  | > 100 µM |  |  |  | > 100 |  |  |  |  |  |  |  |  | > 100 |
| FC(F)(F)c1nc(-c2ccccc2)oc1Sc1nnc(Sc2oc(-c3ccccc3)nc2C(F)(F)F)s1 | 36.8 µM | > 80.7 µM | 19.7 µM | 34.8 µM | > 100 | > 78.7 | > 100 µM | 63.4 µM |  |  |  |  |  |  |  |  |  |  |  |  |
| C=C(C)C1CCC2(C(=O)O)CCC3(C)C(CCC4C5(C)CCC(OC(=O)NCc6ccccc6)C(C)(C)C5CCC43C)C12 (stereo not given) | 10.4 µM | > 100 µM | 28.1 µM | > 100 µM | > 100 | 15.7 | 34.5 µM |  | 0.15 µM | 4.14 | 35.2 | 2.39 µM | 2.36 µM | 2.3 | 1.63 | 1.86 µM |  | 1.71 µM | 4.08 | > 100 |
| COc1ccc(-n2cc(-c3cc(OC)c(OC)c(OC)c3)[nH]c2=O)cc1Cl | > 100 µM | > 100 µM | > 100 µM | > 100 µM |  | > 100 | > 100 µM | > 100 µM | > 100 µM |  |  | > 100 µM | > 100 µM |  | > 100 | > 100 µM | 15 µM | > 100 µM | > 100 | > 100 |
